Data: publication PMC8698482, “WPK5, a Novel Kunitz-Type Peptide from the Leech Whitmania pigra Inhibiting Factor XIa, and Its Loop-Replaced Mutant to Improve Potency” (Biomedicines, 2021)

Tested on: C57BL/6J mice
Assay: FeCl3-induced carotid artery thrombosis model
Format: in vivo
Conditions: heparin sodium 2.7 mg/kg by tail vein 10 min before 6% FeCl3; observed 30 min; n = 6
Experimental: The in vivo antithrombotic activity of WPK5-Mut was evaluated by using a FeCl3-induced carotid artery thrombosis model in mice. Mice (C57BL/6J, males, 18–22 g) were anesthetized by intraperitoneal injection of chloral hydrate (5%, 10 mL/kg) and then placed in a supine position on a heating pad (37 °C) to maintain body temperature. An incision was made in the middle of the mouse’s neck and the fascia and muscle were gradually separated to expose the carotid artery. A rubber strip (4 × 10 mm) was placed under the artery to separate it from the surrounding tissues, and mice were injected heparin sodium (2.7 mg/kg), WPK5-Mut (0.75, 1.5 and 3 mg/kg) or saline through the tail vein and placed under a laser speckle contrast imaging (moor FLPI-2, Moor Instruments Limited, Millwey, Axminster, Devon, EX13 5HU, UK) to observe the carotid blood flow. […] The occlusion time was defined as the time from the removal of the FeCl3 saturated filter paper to the blockage of the vessel for at least 3 consecutive min [44]. If a vessel is blocked at a certain time for 3 consecutive min, this time is recorded as occlusion time, and if no blockage occurs within 30 min, the occlusion time is recorded as 30 min. The blood flow was analyzed by moorFLPI ReviewV50 software.

Substance: heparin sodium
- occlusion time: > 30 min
